Test results from patent US4929736A, “Latent isocynate derivatives useful for deactivating enzymes” (Board of Trustees of the Wichita State University, priority 1986, dated 1990).

Tests used:
[1] = test system: thromboxane synthetease; details: cited from earlier work
[2] = target: T1, Human leukocyte elastase (HLE) (Homo sapiens, UniProt P08246); assay: Spectrophotometric assay of HLE inactivation (in vitro); type: biochemical
T1 construct: purchased Elastin Products, St. Louis, Mo
T1 sequence (P08246 30-267): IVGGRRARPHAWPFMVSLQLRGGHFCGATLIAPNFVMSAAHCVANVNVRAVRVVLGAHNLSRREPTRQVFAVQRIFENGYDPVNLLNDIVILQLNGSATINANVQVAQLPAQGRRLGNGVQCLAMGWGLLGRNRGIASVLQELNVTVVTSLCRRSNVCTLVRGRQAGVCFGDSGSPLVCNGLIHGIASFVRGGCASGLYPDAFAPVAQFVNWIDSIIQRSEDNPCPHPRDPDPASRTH

[3] = test system: ICR mice; assay: Tolerance of mice to IP or IT injection of inhibitor; type: in vivo, mouse; details: all treatments of Table VIII
Text: (§1) Animal models of emphysema include intratracheal administration of an elastolytic protease (PPE, HLE or papain) to cause a slowly progressive, destructive lesion in the lung. These proteases induce a lesion that is evident in the first few hours.
The method used for in vivo evaluation involved injection of a test solution into the trachea, or directly into one bronchus. In general, the method of Hayes et al J. Pathol, 117, 1-14 (1975) was used. A fine teflon tubing was connected to a pipette and inserted into the trachea after the animals were lightly anesthetized by IP injection. The contents of the pipette were then ejected. […] It was further determined that instillation of 40 ug of PPE in the same volume causes an unambigous emphysematous lesion which is restricted to the instilled lobe. After 7 to 10 days to allow inflamation to subside, the animals were sacrificed followed by exsanguination via the descending aorta. PPE was used rather than HLE to produce the lesion because emphysema developes over a much shorter period of time. Emphysema then was induced under acute condition so that the effects of the compounds tested could be investigated under the time constraints of a laboratory procedure. […]
Initially, the tolerance of 30-40 gram male ICR mice to intraperitoneal (IP) or intratracheal (IT) injection of inhibitor (Compound 5, Table I) was evaluated.

[4] = test system: PPE-induced emphysema in ICR mice; assay: Simultaneous intratracheal instillation of PPE with inhibitor, emphysema induction; type: in vivo, mouse; details: for Emphysema: 10 days
Text: as §1
(§2) The method used for in vivo evaluation involved injection of a test solution into the trachea, or directly into one bronchus. In general, the method of Hayes et al J. Pathol, 117, 1-14 (1975) was used. A fine teflon tubing was connected to a pipette and inserted into the trachea after the animals were lightly anesthetized by IP injection. The contents of the pipette were then ejected. […] It was further determined that instillation of 40 ug of PPE in the same volume causes an unambigous emphysematous lesion which is restricted to the instilled lobe. After 7 to 10 days to allow inflamation to subside, the animals were sacrificed followed by exsanguination via the descending aorta. PPE was used rather than HLE to produce the lesion because emphysema developes over a much shorter period of time. Emphysema then was induced under acute condition so that the effects of the compounds tested could be investigated under the time constraints of a laboratory procedure. PPE with an animal model has been used in research in the past to study other, unrelated, inhibitors. (Bergeson, S. H. et al., European Patent No. 0189305 (1986).
Animals were also used to evaluate the effect of simultaneous intratracheal installation of PPE with the above inhibitor compound. The ICR mice in this experiment were used to evaluate the effect of the inhibitor in preventing emphysema induction. Table IX below illustrates the results of these tests:
All animals were sacrificed ten days after instillation.

[5] = test system: Elastase-induced Emphysema in the Mouse; assay: Protection against elastase-induced emphysema in the mouse, lung histology; type: in vivo
Text: as §1, §2
In view of the fact that two tenths umoles of inhibitor is 100 times of the amount of the inhibitor necessary to inhibit the 40 ug of elastase in vitro, dosages were kept in the range of 1 to 10 umoles of inhibitor.
*Elastase: 20 ul containing 40 ug pancreatic elastase
As noted above, the method of in vivo testing is a modification of that of Hayes et al. However, the test solutions are inserted past the vocal chords into one bronchus by resistance. It was established initially that 20 ul of a solution of PPE (2 milligrams per milliter in saline) would create a reliable and unambigous emphysematous lesion. It should also be noted that the animals were scored for the presence of absence of such a lesion in any lobe without regard to the severity of the lesion.

[6] = target: Porcine pancreatic elastase (PPE) (Sus scrofa, UniProt P00772); assay: Spectrophotometric assay of PPE inactivation (in vitro); type: biochemical; details: two tenths umoles
Porcine pancreatic elastase (PPE), sequence (P00772 27-266): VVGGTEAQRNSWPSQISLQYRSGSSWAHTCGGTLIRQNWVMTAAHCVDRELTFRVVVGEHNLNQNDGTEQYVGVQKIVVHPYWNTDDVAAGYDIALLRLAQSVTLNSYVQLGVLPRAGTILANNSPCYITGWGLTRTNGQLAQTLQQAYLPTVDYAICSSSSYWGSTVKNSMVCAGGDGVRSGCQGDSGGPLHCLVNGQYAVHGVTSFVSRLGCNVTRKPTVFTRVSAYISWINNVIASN

[7] = 1 umole, simultaneous administration, n=4
[8] = 5 umoles, 30 min, then elastase, n=3
[9] = 10 umoles, 1 hr, then elastase, n=7
[10] = 10 umoles, 2 hr, then elastase, n=6
[11] = 10 umoles, 3 hr, then elastase, n=2

Structure (SMILES): c1c[nH]cn1 [imidazole]
- thromboxane synthetase inhibition (in words) [1]: inhibitor of thromboxane synthetease

Structure (SMILES): CCC[C@H](NC(=O)n1ccnc1)C(=O)OC [Compound 5, Table I, L-N-(Imidazol-1-ylcarbonyl)norvaline Methyl Ester]
- effectiveness against HLE relative to PPE ([2]; HLE vs PPE in vitro): about eighty
- Inhibition of HLE (in words) ([2]; listed as L-norvaline azolide): highly effective
- Survival (in words) [3]: all animals survived
- abnormal pulmonary pathology [3]: no animals showed abnormal pulmonary pathology
- Emphysema ([4]; IT 1 umole inhibitor, no PPE): No
- Emphysema ([4]; IT 34 ug PPE + 1 umole inhibitor): No
- Prevention of emphysema (in words) ([4]; given simultaneously with PPE): prevented emphysema
- Mouse Lung Histology, Emphysematous [5, 7]: 0
- Mouse Lung Histology, Normal [5, 7]: 4
- Mouse Lung Histology, Emphysematous [5, 8]: 0
- Mouse Lung Histology, Normal [5, 8]: 3
- Mouse Lung Histology, Emphysematous [5, 9]: 5
- Mouse Lung Histology, Normal [5, 9]: 2
- Mouse Lung Histology, Emphysematous [5, 10]: 6
- Mouse Lung Histology, Normal [5, 10]: 0
- Mouse Lung Histology, Emphysematous [5, 11]: 2
- Mouse Lung Histology, Normal [5, 11]: 0
- Mouse Lung Histology, Emphysematous ([5]; 10 umoles, no elastase, n=7): 0
- Mouse Lung Histology, Normal ([5]; 10 umoles, no elastase, n=7): 7
- tolerance of inhibitor doses ([5]; all mice, all doses): all mice treated tolerated all doses
- effect on PPE in the animal model (in words) ([5]; mouse, in vivo): block the effects of PPE
- toxic side effects ([5]; mouse, in vivo): devoid of any toxic side effects
- 0.2 umoles inhibitor relative to amount necessary to inhibit 40 ug elastase in vitro [6]: 100 times
